The values that follow are results of earlier work, collected in article PMC4411882, “Developmental Potential for Endomorphin Opioidmimetic Drugs” (International Journal of Medicinal Chemistry, 2012).

One series concerns the target δ-opioid receptor (Rattus norvegicus, UniProt P33533). Set-up: gene Oprd1; rat brain P2 synaptosomal preparations; species or system rat brain P2 synaptosomal preparations. To be noted: read-out: Kiδ.
In another series the target is T1, μ-opioid receptor (GPI) (Cavia porcellus, UniProt P97266).
T1 construct: gene OPRM1; guinea pig ileum (GPI) bioassay
T1 sequence (P97266 whole entry): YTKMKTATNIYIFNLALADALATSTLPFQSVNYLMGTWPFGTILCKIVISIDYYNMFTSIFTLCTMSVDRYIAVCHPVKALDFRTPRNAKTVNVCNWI
Set-up: species or system guinea pig ileum. The text has this:
(§1) Therefore, we substituted hydrophobic groups in lieu of the phenethyl group to develop the class of H-Dmt-Pro-Phe-NH-X ligands (Figure 1).

The next series deals with T2, δ-opioid receptor (MVD) (Mus musculus, UniProt P32300).
T2 construct: gene Oprd1; mouse vas deferens (MVD) bioassay
T2 sequence (P32300 whole entry): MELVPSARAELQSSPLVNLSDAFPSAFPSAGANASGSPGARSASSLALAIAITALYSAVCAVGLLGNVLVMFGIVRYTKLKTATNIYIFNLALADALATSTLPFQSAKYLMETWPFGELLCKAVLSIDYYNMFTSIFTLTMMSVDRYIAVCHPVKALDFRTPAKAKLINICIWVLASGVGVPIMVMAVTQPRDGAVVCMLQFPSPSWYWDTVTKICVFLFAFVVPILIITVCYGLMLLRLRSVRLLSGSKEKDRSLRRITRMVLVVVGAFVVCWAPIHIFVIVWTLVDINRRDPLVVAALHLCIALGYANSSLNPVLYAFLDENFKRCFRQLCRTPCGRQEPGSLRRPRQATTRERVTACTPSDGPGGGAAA
Set-up: species or system mouse vas deferens.
Text: as §1

The target in the next series is μ-opioid receptor (Rattus norvegicus, UniProt P33535). Set-up: gene Oprm1; rat brain P2 synaptosomal preparations; species or system rat brain P2 synaptosomal preparations. As to conditions: read-out: Kiμ.
μ-opioid receptor, sequence (P33535 whole entry): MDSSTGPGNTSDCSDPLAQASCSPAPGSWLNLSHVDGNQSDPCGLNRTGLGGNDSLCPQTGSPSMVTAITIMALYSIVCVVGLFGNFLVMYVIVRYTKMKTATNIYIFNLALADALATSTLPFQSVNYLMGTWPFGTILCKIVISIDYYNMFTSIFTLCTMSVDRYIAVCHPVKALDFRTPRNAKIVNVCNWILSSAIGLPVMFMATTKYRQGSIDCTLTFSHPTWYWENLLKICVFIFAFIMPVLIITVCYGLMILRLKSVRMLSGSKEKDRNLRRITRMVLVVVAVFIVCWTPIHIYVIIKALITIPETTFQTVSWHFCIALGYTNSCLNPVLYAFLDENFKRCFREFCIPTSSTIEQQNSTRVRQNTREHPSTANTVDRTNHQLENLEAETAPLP

Where a SMILES comes first, the peptide text is derived from it. [ ]: non-standard residue; d: D form. The star is where a group is joined. Dmt = Cc1cc(O)cc(C)c1C[C@H](N)C(=O)O; NHPhenethyl = c1ccc(CCN*)cc1; NHBn = c1ccc(CN*)cc1

δ-opioid receptor, sequence (P33533 whole entry): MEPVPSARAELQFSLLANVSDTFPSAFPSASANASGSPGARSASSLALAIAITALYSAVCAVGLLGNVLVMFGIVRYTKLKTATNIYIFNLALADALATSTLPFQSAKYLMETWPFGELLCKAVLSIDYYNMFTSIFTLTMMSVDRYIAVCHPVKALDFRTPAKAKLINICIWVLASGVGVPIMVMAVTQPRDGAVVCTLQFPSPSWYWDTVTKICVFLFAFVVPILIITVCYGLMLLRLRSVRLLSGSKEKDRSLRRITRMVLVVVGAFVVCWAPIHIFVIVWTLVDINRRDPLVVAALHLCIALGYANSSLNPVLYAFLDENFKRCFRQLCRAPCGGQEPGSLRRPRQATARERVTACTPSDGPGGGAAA

As to `Cc1cc(O)cc(C)c1CC(N)C(=O)NCCc1[nH]c(=O)c(CCNC(=O)C(N)Cc2c(C)cc(O)cc2C)nc1C` (stereo not shown) [compound 56, 3,6-bis[Dmt-NH(CH2)2]-5-methyl-2(1H)-pyrazinone], the Ki at δ-opioid receptor was 7.26 nM. The IC50 – broadly, the point on the concentration scale where inhibition reaches its midpoint – on μ-opioid receptor (GPI) was 12.9 nM; on δ-opioid receptor (MVD), above 10000 nM.
With `Cc1cc(O)cc(C)c1C[C@H](N)C(=O)N1CCC[C@H]1C(=O)N[C@@H](Cc1c(C)cccc1C(C)C)C(=O)N[C@@H](Cc1ccccc1)C(N)=O` [compound 46, H-Dmt-Pro-Imp-Phe-NH2], the Ki is 4.61 nM on δ-opioid receptor and 0.32 nM at μ-opioid receptor. Also, the values for the IC50 at μ-opioid receptor (GPI) and at δ-opioid receptor (MVD) were 0.2 nM and 5.56 nM, respectively.
Consider `Cc1cc(O)cc(C)c1C[C@H](N)C(=O)N1Cc2ccccc2C[C@H]1C(=O)NCCCCNC(=O)[C@@H]1Cc2ccccc2CN1C(=O)[C@@H](N)Cc1c(C)cc(O)cc1C` [compound 66, bis[Dmt-Tic-NH]butane], for which the Ki at δ-opioid receptor is 0.124 nM; at μ-opioid receptor it was 5.72 nM. The concentration for half-maximal inhibition (IC50) at μ-opioid receptor (GPI) and at δ-opioid receptor (MVD) was above 10000 nM in each case.
On to `Cc1cc(O)cc(C(C)C)c1C[C@H](N)C(=O)N1CCC[C@H]1C(=O)N[C@@H](Cc1ccccc1)C(=O)N[C@@H](Cc1ccccc1)C(N)=O` [compound 36, H-Imt-Pro-Phe-Phe-NH2], for which the Ki on δ-opioid receptor was 190 nM; on μ-opioid receptor it was 0.15 nM. Further, the IC50 is 10.6 nM at μ-opioid receptor (GPI) and 601 nM on δ-opioid receptor (MVD).
As for `Cc1cc(O)cc(C)c1CC(C(=O)N1Cc2ccccc2CC1C(=O)NCCCCCCNC(=O)C1Cc2ccccc2CN1C(=O)C(Cc1c(C)cc(O)cc1C)N(C)C)N(C)C` (stereo not drawn) [compound 69, bis[N,N-dimethyl-Dmt-Tic-NH]hexane], the Ki is 0.06 nM at δ-opioid receptor and 2.21 nM on μ-opioid receptor. In addition, the IC50 on μ-opioid receptor (GPI) and at δ-opioid receptor (MVD) was above 10000 nM in each case.
Turning to `Cc1cc(O)cc(C)c1C[C@H](N)C(=O)N1CCC[C@H]1C(=O)N[C@@H](Cc1ccccc1)C(=O)NCc1ccccc1` [compound 23, H-Dmt-Pro-Phe-NH-Bzl] (H-[Dmt]-Pro-Phe-NHBn), the Ki on δ-opioid receptor was 13.8 nM; on μ-opioid receptor it was 0.52 nM. Also, the IC50 on μ-opioid receptor (GPI) is 22 nM; on δ-opioid receptor (MVD) it was above 10000 nM.
As to `Cc1cc(O)cc(C)c1C[C@H](NC(=O)[C@@H]1CCCN1C(=O)[C@@H](N)Cc1c(C)cc(O)cc1C)C(=O)N[C@@H](Cc1ccccc1)C(N)=O` [compound 43, H-Dmt-Pro-Dmt-Phe-NH2] (H-[Dmt]P[Dmt]F-NH2), the Ki at δ-opioid receptor is 80.8 nM; at μ-opioid receptor, 0.092 nM. In addition, the IC50 on μ-opioid receptor (GPI) was 1.94 nM; on δ-opioid receptor (MVD), above 10000 nM.
Consider `Cc1cc(O)cc(C)c1C[C@H](N)C(=O)N1CCC[C@H]1C(=O)N[C@@H](Cc1ccccc1)C(=O)Nc1cccc2ncccc12` [compound 30, H-Dmt-Pro-Phe-NH-5-Qln], for which the Ki on δ-opioid receptor is 30 nM; at μ-opioid receptor it was 0.11 nM. Besides, the IC50 on μ-opioid receptor (GPI) was 0.26 nM; on δ-opioid receptor (MVD), 0.616 nM.
Take `Cc1cc(O)cc(C)c1CC(N)C(=O)N1Cc2ccccc2CC1C(=O)NCCCCc1[nH]c(=O)c(CCNC(=O)C2Cc3ccccc3CN2C(=O)C(N)Cc2c(C)cc(O)cc2C)nc1C` (stereo not drawn) [compound 65, 3-[Dmt-Tic-NH(CH2)2]-6-[Dmt-Tic-NH(CH2)4]-5-methyl-2(1H)-pyrazinone]: the Ki is 0.107 nM on δ-opioid receptor and 1.37 nM on μ-opioid receptor. In addition, the IC50 at μ-opioid receptor (GPI) and at δ-opioid receptor (MVD) was above 10000 nM in each case.
`Cc1cc(O)cc(C)c1CC(N)C(=O)N1Cc2ccccc2CC1C(=O)NCCCc1[nH]c(=O)c(CCCNC(=O)C2Cc3ccccc3CN2C(=O)C(N)Cc2c(C)cc(O)cc2C)nc1C` (stereo not drawn) [compound 61, 3,6-bis[Dmt-Tic-NH(CH2)3]-5-methyl-2(1H)-pyrazinone]: the Ki on δ-opioid receptor was 0.155 nM; on μ-opioid receptor, 3.08 nM. Besides, the values for the IC50 on μ-opioid receptor (GPI) and on δ-opioid receptor (MVD) were 7020 nM and above 10000 nM, respectively.
Regarding `Cc1cc(O)cc(C)c1CC(N)C(=O)N1Cc2ccccc2CC1C(=O)NCCCCc1nc(C)c(CCCNC(=O)C2Cc3ccccc3CN2C(=O)C(N)Cc2c(C)cc(O)cc2C)[nH]c1=O` (stereo not drawn) [compound 64, 3-[Dmt-Tic-NH(CH2)4]-6-[Dmt-Tic-NH(CH2)3]-5-methyl-2(1H)-pyrazinone], the Ki at δ-opioid receptor was 0.092 nM; at μ-opioid receptor, 2.28 nM. Besides, the IC50 at μ-opioid receptor (GPI) and on δ-opioid receptor (MVD) was above 10000 nM in each case.
As for `Cc1cc(O)cc(C)c1CC(N)C(=O)NCCCCc1[nH]c(=O)c(CCCCNC(=O)C(N)Cc2c(C)cc(O)cc2C)nc1C` (stereo not shown) [compound 58, 3,6-bis[Dmt-NH(CH2)4]-5-methyl-2(1H)-pyrazinone], the Ki was 23.2 nM on δ-opioid receptor and 0.114 nM on μ-opioid receptor. In addition, the IC50 at μ-opioid receptor (GPI) is 1.9 nM; at δ-opioid receptor (MVD) it was 41.5 nM.
On to `Cc1cc(O)cc(C)c1C[C@H](N)C(=O)N1CCC[C@H]1C(=O)N[C@@H](Cc1ccccc1)C(=O)Nc1cccc2cccnc12` [compound 32, H-Dmt-Pro-Phe-NH-8-Qln], for which the Ki was 33.1 nM at δ-opioid receptor and 0.49 nM on μ-opioid receptor. The IC50 on μ-opioid receptor (GPI) was 445 nM; on δ-opioid receptor (MVD), 2980 nM.
With H-Dmt-Pro-Tmp-Phe-NH2 [compound 44], the Ki was 1.83 nM at δ-opioid receptor and 0.18 nM at μ-opioid receptor. The IC50 on μ-opioid receptor (GPI) was 0.21 nM; on δ-opioid receptor (MVD), above 10000 nM.
`Cc1cc(O)cc(C)c1CC(C(=O)N1Cc2ccccc2CC1C(=O)NCCCc1[nH]c(=O)c(CCCNC(=O)C2Cc3ccccc3CN2C(=O)C(Cc2c(C)cc(O)cc2C)N(C)C)nc1C)N(C)C` (stereo not drawn) [compound 70, 3,6-bis[N,N-dimethyl-Dmt-Tic-NH-propyl]-5-methyl-2(1H)-pyrazinone]: the Ki at δ-opioid receptor was 0.287 nM; at μ-opioid receptor, 1.68 nM. Besides, the IC50 on μ-opioid receptor (GPI) and at δ-opioid receptor (MVD) was above 10000 nM each time.
As to `NC(=O)[C@H](Cc1ccccc1)NC(=O)[C@@H]1CCCN1C(=O)[C@@H](N)Cc1ccc(O)cc1` [compound 18, H-Tyr-Pro-Phe-NH2] (H-Tyr-Pro-Phe-NH2), the Ki was 15900 nM at δ-opioid receptor and 46.1 nM at μ-opioid receptor.
As to `Cc1cc(O)cc(C)c1C[C@H](N)C(=O)N1CCC[C@H]1C(=O)N[C@@H](Cc1ccccc1)C(=O)Nc1ccc2ncccc2c1` [compound 31, H-Dmt-Pro-Phe-NH-6-Qln], the Ki on δ-opioid receptor is 46.6 nM; on μ-opioid receptor, 0.22 nM. Besides, the IC50 is 6.21 nM on μ-opioid receptor (GPI) and above 10000 nM on δ-opioid receptor (MVD).
On to `Cc1cc(O)cc(C)c1CC(N)C(=O)N1Cc2ccccc2CC1C(=O)NCCCCc1[nH]c(=O)c(CCCNC(=O)C2Cc3ccccc3CN2C(=O)C(N)Cc2c(C)cc(O)cc2C)nc1C` (stereo not drawn) [compound 63, 3-[Dmt-Tic-NH(CH2)3]-6-[Dmt-Tic-NH(CH2)4]-5-methyl-2(1H)-pyrazinone], for which the Ki on δ-opioid receptor was 0.16 nM; on μ-opioid receptor, 1.56 nM. For the same molecule, the concentration for half-maximal inhibition (IC50) on μ-opioid receptor (GPI) and at δ-opioid receptor (MVD) was above 10000 nM each time.
For the molecule `CCc1cc(O)cc(CC)c1C[C@H](N)C(=O)N1CCC[C@H]1C(=O)N[C@@H](Cc1ccccc1)C(=O)N[C@@H](Cc1ccccc1)C(N)=O` [compound 37, H-Det-Pro-Phe-Phe-NH2], the Ki on δ-opioid receptor was 69.7 nM; on μ-opioid receptor, 0.084 nM. Further, the IC50 was 0.903 nM at μ-opioid receptor (GPI) and 47.1 nM at δ-opioid receptor (MVD).
For the molecule `Cc1cc(O)cc(C)c1C[C@H](N)C(=O)N1CCC[C@H]1C(=O)N[C@@H](Cc1ccccc1)C(=O)NCCc1ccccc1` [compound 22, H-Dmt-Pro-Phe-NH-C2H4-Ph] (H-[Dmt]-Pro-Phe-NHPhenethyl), the results for the Ki on δ-opioid receptor and on μ-opioid receptor were 18 nM and 0.51 nM, respectively. Also, the figures for the IC50 on μ-opioid receptor (GPI) and at δ-opioid receptor (MVD) were 5.03 nM and above 10000 nM, respectively.
Take `CCc1cccc(C)c1CC(NC(=O)C1CCCN1C(=O)C(N)Cc1c(C)cc(O)cc1C)C(=O)NC(Cc1ccccc1)C(N)=O` (stereo not drawn) [compound 45, H-Dmt-Pro-Emp-Phe-NH2]: the Ki is 3.03 nM on δ-opioid receptor and 0.21 nM at μ-opioid receptor. Further, the values for the IC50 on μ-opioid receptor (GPI) and at δ-opioid receptor (MVD) were 0.17 nM and 0.51 nM, respectively.
For the molecule H-Tmt-Pro-Phe-Phe-NH2 [compound 39], the results for the Ki at δ-opioid receptor and at μ-opioid receptor were 594 nM and 0.111 nM, respectively. In addition, the values for the IC50 at μ-opioid receptor (GPI) and on δ-opioid receptor (MVD) were 2.31 nM and 46.4 nM, respectively.
Consider `Cc1cc(O)cc(C)c1C[C@H](N)C(=O)N1Cc2ccccc2C[C@H]1C(=O)NCCCCCCCCCCNC(=O)[C@@H]1Cc2ccccc2CN1C(=O)[C@@H](N)Cc1c(C)cc(O)cc1C` [compound 68, bis[Dmt-Tic-NH]decane], for which the values for the Ki at δ-opioid receptor and on μ-opioid receptor were 1.53 nM and 4.86 nM, respectively. Moreover, the IC50 at μ-opioid receptor (GPI) is 5420 nM; at δ-opioid receptor (MVD) it was above 10000 nM.
Consider `C=CCN[C@@H](Cc1c(C)cc(O)cc1C)C(=O)N1CCC[C@H]1C(=O)N[C@@H](Cc1c[nH]c2ccccc12)C(=O)N[C@@H](Cc1ccccc1)C(N)=O` [compound 47, [N-allyl-Dmt^1]EM-1], for which the Ki is 10.3 nM at δ-opioid receptor and 0.26 nM on μ-opioid receptor. Also, the IC50 on μ-opioid receptor (GPI) and at δ-opioid receptor (MVD) was above 10000 nM each time.
Consider `NC(=O)C(Cc1ccccc1)NC(=O)C(Cc1ccccc1)NC(=O)C1CCCN1C(=O)C(N)Cc1ccc(O)cc1` [compound 12, L-D-L-L (EM-2), [D-Pro^2]EM-2], for which, at μ-opioid receptor, the Ki is 512 nM.
Regarding `Cc1cc(O)cc(C)c1C[C@H](N)C(=O)N1CCC[C@H]1C(=O)N[C@@H](Cc1ccccc1)C(=O)Nc1cccc2ccccc12` [compound 28, H-Dmt-Pro-Phe-NH-1-Nph], the Ki on δ-opioid receptor is 19.9 nM. Also, the results for the IC50 on μ-opioid receptor (GPI) and at δ-opioid receptor (MVD) were 0.49 nM and 5.47 nM, respectively.
Turning to `Cc1cc(O)cc(C)c1C[C@H](N)C(=O)N1Cc2ccccc2C[C@H]1C(=O)NCCCCCCNC(=O)[C@@H]1Cc2ccccc2CN1C(=O)[C@@H](N)Cc1c(C)cc(O)cc1C` [compound 67, bis[Dmt-Tic-NH]hexane], the Ki is 0.129 nM at δ-opioid receptor and 1.79 nM on μ-opioid receptor. For the same molecule, on δ-opioid receptor (MVD), the IC50 was above 10000 nM.
On to H-Dmt-Pro-Phe-NH-4-Pyr [compound 25], for which the Ki at δ-opioid receptor is 52.6 nM. In addition, the values for the IC50 on μ-opioid receptor (GPI) and at δ-opioid receptor (MVD) were 11.8 nM and above 10000 nM, respectively.
